Measured values taken from patent US9227971B2, “Pyrazolo[1,5-a]pyrimidine compounds as mTOR inhibitors” (Merck Sharp & Dohme Corp., priority 2010, dated 2016).
Where two headings read alike, the source gives them in different places.

Key:
[1] = test system: phosphorylated 4E-BP1 Thr37/46 (p4E-BP1 Thr37/46), mTORC1 activity, PC3 cells; assay: mTOR target engagement assay, immunofluorescent cell-based, p4E-BP1 Thr37/46 readout (mTORC1 activity); details: Homo sapiens, read-out: p4E-BP1 Thr37/46 IC50
Outline: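 Cell-based immunofluorescence in PC3 cells: serially diluted compounds (0.25% DMSO, 5% FBS) applied for ninety minutes at 37° C before fixation and overnight 4° C staining of p4E-BP1 Thr37/46. Untreated DMSO wells set maximal phosphorylation; IC50 obtained by logistic fitting.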

[2] = test system: phosphorylated AKT Ser473 (pAKT S473), mTORC2 activity, PC3 cells; assay: mTOR target engagement assay, immunofluorescent cell-based, pAKT S473 readout (mTORC2 activity); details: Homo sapiens
Outline: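 After blocking, cells were stained overnight at 4 °C with anti-pAKT S473 antibody, then a fluorescent secondary; inhibition was read as reduced fluorescence intensity.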

[3] = PC-3, PC3 cells, compound treatment ninety minutes at 37° C.

Cc1nnc(C(=O)N2[C@@H]3CC[C@H]2C[C@H](c2nc4c(-c5ccc(-c6ccc(F)cc6F)nc5)cnn4c(N)c2S(C)(=O)=O)C3)[nH]1 [Compound 3.127, ((1R,3s,5S)-3-(7-amino-3-(6-(2,4-difluorophenyl)pyridin-3-yl)-6-(methylsulfonyl)pyrazolo[1,5-a]pyrimidin-5-yl)-8-azabicyclo[3.2.1]octan-8-yl)(5-methyl-4H-1,2,4-triazol-3-yl)methanone] was tested, and the IC50 ([1]; PC-3, Table 3-1, PC3 cells) was 1 to 100 nM and the IC50 ([2]; PC-3, Table 3-1, PC3 cells) was 100 to 1000 nM.
In the case of Cn1cc(-c2cnn3c(N)c(S(C)(=O)=O)c([C@@H]4C[C@H]5CC[C@@H](C4)N5C(=O)CO)nc23)cn1 [Compound 3.112, 1-((1R,3s,5S)-3-(7-amino-3-(1-methyl-1H-pyrazol-4-yl)-6-(methylsulfonyl)pyrazolo[1,5-a]pyrimidin-5-yl)-8-azabicyclo[3.2.1]octan-8-yl)-2-hydroxyethanone], the IC50 ([1]; PC-3, Table 3-1, PC3 cells) is reported as 1000 to 10000 nM and the IC50 ([2]; PC-3, Table 3-1, PC3 cells) is reported as over 10000 nM.
In the case of CC(=O)c1c([C@@H]2C[C@H]3CC(O)[C@@H](C2)N3C(=O)c2nc[nH]n2)nc2c(-c3ccc(-c4ccccc4)nc3)cnn2c1N (stereo partly drawn) [Compound 8.34, 1-(7-amino-5-((1S,3R,5R)-6-hydroxy-8-(1H-1,2,4-triazole-3-carbonyl)-8-azabicyclo[3.2.1]octan-3-yl)-3-(6-phenylpyridin-3-yl)pyrazolo[1,5-a]pyrimidin-6-yl)ethanone], the IC50 ([1]; PC-3, PC3 cells) is reported as 1 to 100 nM and the IC50 ([2]; PC-3, PC3 cells) is reported as 1 to 100 nM.
For NC(=O)c1c([C@@H]2C[C@H]3CC[C@@H](C2)N3C(=O)c2nc[nH]n2)nc2c(-c3ccc(-c4ccccc4)nc3)cnn2c1N [Compound 8.40], the IC50 ([1]; PC-3, PC3 cells) was 1 to 100 nM and the IC50 ([2]; PC-3, PC3 cells) was 1 to 100 nM.
In the case of CC(=O)c1c([C@@H]2C[C@H]3CC[C@@H](C2)N3C(=O)CO)nc2c(-c3ccc(-c4nc[nH]n4)nc3)cnn2c1N [Compound 1.1.102, 1-((1R,3s,5S)-3-(3-(6-(1H-1,2,4-triazol-3-yl)pyridin-3-yl)-6-acetyl-7-aminopyrazolo[1,5-a]pyrimidin-5-yl)-8-azabicyclo[3.2.1]octan-8-yl)-2-hydroxyethanone], the IC50 [1, 3] is reported as 1 to 100 nM and the IC50 [2, 3] is reported as 1 to 100 nM.
CS(=O)(=O)c1c([C@H]2CC3CC[C@H](C2)N3C(=O)c2cnn[nH]2)nc2c(-c3ccc(-c4c(F)cccc4F)nc3)cnn2c1N [Compound 3.173, ((1R,3s,5S)-3-(7-amino-3-(6-(2,6-difluorophenyl)pyridin-3-yl)-6-(methylsulfonyl)pyrazolo[1,5-a]pyrimidin-5-yl)-8-azabicyclo[3.2.1]octan-8-yl)(1H-1,2,3-triazol-5-yl)methanone] was tested, and the IC50 ([1]; PC-3, Table 3-1, PC3 cells) was 100 to 1000 nM and the IC50 ([2]; PC-3, Table 3-1, PC3 cells) was 100 to 1000 nM.
In the case of CC(=O)c1c([C@@H]2C[C@H]3CC[C@@H](C2)N3C(=O)CO)nc2c(-c3ccc(-c4cccc(F)c4)nc3)cnn2c1N [Compound 1.1.105, 1-((1R,3r,5S)-3-(6-acetyl-7-amino-3-(6-(3-fluorophenyl)pyridin-3-yl)pyrazolo[1,5-a]pyrimidin-5-yl)-8-azabicyclo[3.2.1]octan-8-yl)-2-hydroxyethanone], the IC50 [1, 3] is reported as 100 to 1000 nM and the IC50 [2, 3] is reported as 100 to 1000 nM.
In the case of CS(=O)(=O)c1c([C@@H]2C[C@H]3CC[C@@H](C2)N3/C(N)=N/C#N)nc2c(-c3ccc(-c4ccccc4)nc3)cnn2c1N [Compound 8.87, (1R,3s,5S,E)-3-(7-amino-6-(methylsulfonyl)-3-(6-phenylpyridin-3-yl)pyrazolo[1,5-a]pyrimidin-5-yl)-N′-cyano-8-azabicyclo[3.2.1]octane-8-carboximidamide], the IC50 ([1]; PC-3, PC3 cells) is reported as 100 to 1000 nM and the IC50 ([2]; PC-3, PC3 cells) is reported as 1 to 100 nM.
In the case of COc1ccc(-c2ccc(-c3cnn4c(N)c(C5CC5)c([C@@H]5C[C@H]6CC[C@@H](C5)N6C(=O)c5nnc[nH]5)nc34)cn2)c(F)c1F [Compound 4.10, ((1R,3a,5S)-3-(7-amino-6-cyclopropyl-3-(6-(2,3-difluoro-4-methoxyphenyl)pyridin-3-yl)pyrazolo[1,5-a]pyrimidin-5-yl)-8-azabicyclo[3.2.1]octan-8-yl)(4H-1,2,4-triazol-3-yl)methanone], the IC50 [1, 3] is reported as 1 to 100 nM and the IC50 [2, 3] is reported as 1 to 100 nM.
With CS(=O)(=O)c1c([C@@H]2C[C@H]3CC[C@@H](C2)N3C(=O)CO)nc2c(-c3cnc(-c4ccccc4)c(O)c3)cnn2c1N [Compound 3.23, 1-((1R,3s,5S)-3-(7-amino-3-(5-hydroxy-6-phenylpyridin-3-yl)-6-(methylsulfonyl)pyrazolo[1,5-a]pyrimidin-5-yl)-8-azabicyclo[3.2.1]octan-8-yl)-2-hydroxyethanone] the IC50 ([1]; PC-3, Table 3-1, PC3 cells) was 1000 to 10000 nM and the IC50 ([2]; PC-3, Table 3-1, PC3 cells) was 1000 to 10000 nM.
Molecule CC(=O)c1c([C@@H]2C[C@H]3CC[C@@H](C2)N3C(=O)c2nc[nH]n2)nc2c(-c3ccc(C(C)O)cc3)cnn2c1N (stereo partly drawn) [Compound 7.20, 1-(5-((1R,3s,5S)-8-(1H-1,2,4-triazole-3-carbonyl)-8-azabicyclo[3.2.1]octan-3-yl)-7-amino-3-(4-(1-hydroxyethyl)phenyl)pyrazolo[1,5-a]pyrimidin-6-yl)ethanone] has an IC50 [1, 3] of 1 to 100 nM and an IC50 [2, 3] of 1 to 100 nM.
For CC(=O)c1c([C@@H]2C[C@H]3CC[C@@H](C2)N3C(=O)CO)nc2c(-c3ccc(-c4nccs4)nc3)cnn2c1N [Compound 1.1.33, 1-((1R,3s,5S)-3-(6-acetyl-7-amino-3-(6-(thiazol-2-yl)pyridin-3-yl)pyrazolo[1,5-a]pyrimidin-5-yl)-8-azabicyclo[3.2.1]octan-8-yl)-2-hydroxyethanone], the IC50 [1, 3] was 100 to 1000 nM and the IC50 [2, 3] was 1 to 100 nM.
CC(=O)c1c([C@@H]2C[C@H]3CC[C@@H](C2)N3C(=O)c2ccn[nH]2)nc2c(-c3ccc(-c4ccc(F)cc4F)nc3)cnn2c1N [Compound 1.1.167, 1-(5-((1R,3s,5S)-8-(1H-pyrazole-5-carbonyl)-8-azabicyclo[3.2.1]octan-3-yl)-7-amino-3-(6-(2,4-difluorophenyl)pyridin-3-yl)pyrazolo[1,5-a]pyrimidin-6-yl)ethanone] gave an IC50 [1, 3] of 100 to 1000 nM and an IC50 [2, 3] of 1 to 100 nM.
CC(=O)c1c([C@@H]2C[C@H]3CC[C@@H](C2)N3C(N)=O)nc2c(-c3ccc(-c4ncc[nH]4)nc3)cnn2c1N [Compound 6.30, (1R,3s,5S)-3-(3-(6-(1H-imidazol-2-yl)pyridin-3-yl)-6-acetyl-7-aminopyrazolo[1,5-a]pyrimidin-5-yl)-8-azabicyclo[3.2.1]octane-8-carboxamide] gave an IC50 ([1]; PC-3, Table 6-1, PC3 cells) of 1 to 100 nM and an IC50 ([2]; PC-3, Table 6-1, PC3 cells) of 1 to 100 nM.
In the case of CS(=O)(=O)c1c(C2CC3CCC(C2)N3C(=O)c2nnc[nH]2)nc2c(-c3ccc(-c4ccccc4)[n+]([O-])c3)cnn2c1N [Compound 3.6, 5-(5-((1R,3s,5S)-8-(1H-1,2,4-triazole-3-carbonyl)-8-azabicyclo[3.2.1]octan-3-yl)-7-amino-6-(methylsulfonyl)pyrazolo[1,5-a]pyrimidin-3-yl)-2-phenylpyridine 1-oxide], the IC50 ([1]; PC-3, Table 3-1, PC3 cells) is reported as 100 to 1000 nM and the IC50 ([2]; PC-3, Table 3-1, PC3 cells) is reported as 100 to 1000 nM.
In the case of CC(=O)c1c([C@@H]2C[C@H]3CC[C@@H](C2)N3C(=O)c2nnc[nH]2)nc2c(-c3cnc(-c4ccn(C)n4)c(C)c3)cnn2c1N [Compound 1.1.114, 1-(5-((1R,3s,5S)-8-(4H-1,2,4-triazole-3-carbonyl)-8-azabicyclo[3.2.1]octan-3-yl)-7-amino-3-(5-methyl-6-(1-methyl-1H-pyrazol-3-yl)pyridin-3-yl)pyrazolo[1,5-a]pyrimidin-6-yl)ethanone], the IC50 [1, 3] is reported as 1000 to 10000 nM and the IC50 [2, 3] is reported as 1000 to 10000 nM.
Work on CC(=O)c1c([C@@H]2C[C@H]3CC[C@@H](C2)N3C(=O)c2nnc[nH]2)nc2c(-c3ccc([C@@H](C)O)nc3)cnn2c1N [Compound 7.14, 1-(5-((1R,3s,5S)-8-(4H-1,2,4-triazole-3-carbonyl)-8-azabicyclo[3.2.1]octan-3-yl)-7-amino-3-(6-((R)-1-hydroxyethyl)pyridin-3-yl)pyrazolo[1,5-a]pyrimidin-6-yl)ethanone] yielded an IC50 [1, 3] of 100 to 1000 nM and an IC50 [2, 3] of 100 to 1000 nM.
CNC(=O)c1ccc(-c2cnn3c(N)c(C(C)=O)c([C@@H]4C[C@H]5CC[C@@H](C4)N5C(=O)c4nc[nH]n4)nc23)cn1 [Compound 1.1.28, 5-(5-((1R,3s,5S)-8-(1H-1,2,4-triazole-3-carbonyl)-8-azabicyclo[3.2.1]octan-3-yl)-6-acetyl-7-aminopyrazolo[1,5-a]pyrimidin-3-yl)-N-methylpicolinamide] gave an IC50 [1, 3] of 1000 to 10000 nM and an IC50 [2, 3] of 1000 to 10000 nM.
CS(=O)(=O)c1c([C@@H]2C[C@H]3CC[C@@H](C2)N3C(=O)CO)nc2c(-c3ccc(-c4ccncc4)nc3)cnn2c1N [Compound 3.65, 1-((1R,3s,5S)-3-(3-(2,4′-bipyridin-5-yl)-7-amino-6-(methylsulfonyl)pyrazolo[1,5-a]pyrimidin-5-yl)-8-azabicyclo[3.2.1]octan-8-yl)-2-hydroxyethanone] gave an IC50 ([1]; PC-3, Table 3-1, PC3 cells) of 1000 to 10000 nM and an IC50 ([2]; PC-3, Table 3-1, PC3 cells) of 1000 to 10000 nM.
For CC(=O)c1c([C@@H]2C[C@H]3CC[C@@H](C2)N3C(=O)c2nnc[nH]2)nc2c(-c3ccc(-c4ccncc4)nc3)cnn2c1N [Compound 1.1.76, 1-(3-(2,4′-bipyridin-5-yl)-5-((1R,3s,5S)-8-(4H-1,2,4-triazole-3-carbonyl)-8-azabicyclo[3.2.1]octan-3-yl)-7-aminopyrazolo[1,5-a]pyrimidin-6-yl)ethanone], the IC50 [1, 3] was 100 to 1000 nM and the IC50 [2, 3] was 100 to 1000 nM.
In the case of CC(=O)c1c([C@@H]2C[C@H]3CC[C@@H](C2)N3C(=O)c2nnc[nH]2)nc2c(-c3cnc(-c4ccccc4)nc3)cnn2c1N [Compound 1.1.179, 1-(5-((1R,3s,5S)-8-(4H-1,2,4-triazole-3-carbonyl)-8-azabicyclo[3.2.1]octan-3-yl)-7-amino-3-(2-phenylpyrimidin-5-yl)pyrazolo[1,5-a]pyrimidin-6-yl)ethanone], the IC50 [1, 3] is reported as 1 to 100 nM and the IC50 [2, 3] is reported as 1 to 100 nM.
